From patent EP3255433A1, “METHODS USING BLM AS A MARKER OF MULTIPLE MYELOMA” (priority 2016, dated 2017)
Like-named read-outs stand apart in the source and are kept apart here.

Assays:
[1] = test system: human myeloma cell lines (HMCL); assay: Cell growth inhibition of human myeloma cell lines (CellTiter-Glo Luminescent Cell Viability Assay); type: cell-based; settings: 96 h, 4 days culture, 2 ng/ml interleukin six
Excerpt: • Figure 1: BLM expression in normal and malignant plasma cells. BLM expression in normal BMPCs (N = 5), in MM cells of patients with intramedullary MM (N = 206) and in HMCLs (N = 26). Ordinate : BLM expression, as expressed in Affimetrix signal arbitrary units. Abscissa : from left to right : BMPCs (n=5); MMCs (n=206) and HMCLs (n=26). • Figure 2: BLM gene expression in the 7 MM molecular subgroups of the TT2-cohort. PR = proliferation, LB = low bone disease, MS = MMSET, HY = hyperdiploid, CD1 = cyclin D1/D3, CD2 = cyclin D1/D3, MF = MAF. * indicates higher score value compared to all other groups with P<0.05. Ordinate : BLM expression, as expressed in Affimetrix signal arbitrary units. […] At day 4 of culture, the viability was assessed by CellTiter-Glo® Luminescent Cell Viability Assay. […] Data are mean values ± standard deviation (SD) of five experiments determined on sextuplet culture wells. • Figure 4A : Growth inhibition of a plurality of MM cell lines in the presence of the ML216 BLM inhibitor. Ordinate : cell growth inhibition, as expressed as percent of control cells without ML216 :Cell lines tested : □ XG1 cells; ◊ XG7 cells; ○ XG12 cells; ◆XG25 cells; ● XG19 cells; + LP1 cells. […] At day 4 of culture, the viability and total cell counts were assessed and the percentage of CD138 viable plasma and non-myeloma cells was determined by flow cytometry. […]

[2] = test system: primary myeloma cells of patients; assay: Cytotoxicity on primary myeloma cells of patients (CD138 flow cytometry); type: cell-based, human; settings: 4 days, IL-6 (1 ng/mL), co-cultured with bone marrow environment, n=7
Excerpt: • Figure 1: BLM expression in normal and malignant plasma cells. BLM expression in normal BMPCs (N = 5), in MM cells of patients with intramedullary MM (N = 206) and in HMCLs (N = 26). Ordinate : BLM expression, as expressed in Affimetrix signal arbitrary units. Abscissa : from left to right : BMPCs (n=5); MMCs (n=206) and HMCLs (n=26). • Figure 2: BLM gene expression in the 7 MM molecular subgroups of the TT2-cohort. PR = proliferation, LB = low bone disease, MS = MMSET, HY = hyperdiploid, CD1 = cyclin D1/D3, CD2 = cyclin D1/D3, MF = MAF. * indicates higher score value compared to all other groups with P<0.05. Ordinate : BLM expression, as expressed in Affimetrix signal arbitrary units. Abscissa : from left to right: PR, LB, MS, HY, CD1, CD2 and MF . • Figure 3: BLM expression in MMCs could predict for shorter overall and event free survival in independent cohorts of patients. • Figure 3A : Patients of the HM cohort (n = 206) were ranked according to increasing BLM expression and a maximum difference in overall survival (OS) was obtained using the Maxstat R function. Upper curve : BLM^Low; Lower curve : BLM^High. Ordinate : Overall Survival (OS). Abscissa : Days from diagnosis. • Figure 3B : BLM expression is also associated with a shorter event free survival (EFS) in the HM cohort (n = 206). Upper curve : BLM^Low; Lower curve : BLM^High. Ordinate : […]). […] At day 4 of culture, the viability was assessed by CellTiter-Glo® Luminescent Cell Viability Assay. […] Data are mean values ± standard deviation (SD) of five experiments determined on sextuplet culture wells. • Figure 4A : Growth inhibition of a plurality of MM cell lines in the presence of the ML216 BLM inhibitor. Ordinate : cell growth inhibition, as expressed as percent of control cells without ML216 :Cell lines tested : □ XG1 cells; ◊ XG7 cells; ○ XG12 cells; ◆XG25 cells; ● XG19 cells; + LP1 cells. […] At day 4 of culture, the viability and total cell counts were assessed and the percentage of CD138 viable plasma and non-myeloma cells was determined by flow cytometry. […]

IC50 ([1]; median over 6 HMCL (XG-1, XG-7, XG-12, XG-25, XG-19, LP1), read-out: median IC50): 4.1 µM | IC50 ([1]; range over 6 HMCL, read-out: IC50 (range)): 1.2 to 30 µM
SMILES: O=C(Nc1ccc(F)c(C(F)(F)F)c1)Nc1nnc(-c2ccncc2)s1 [ML216]
reduction of the median number of viable myeloma cells ([2]; 3 µM, P = 0.001): 54% | reduction of the median number of viable myeloma cells ([2]; 6 µM, P < 0.001): 60% | reduction of the median number of viable myeloma cells ([2]; 10 µM, P <0.001): 74%
